This note sets out measurements from BindingDB's records for doi:10.1046/j.1440-1681.1999.03022.x (University of Melbourne, 1999).

As usually defined, the Ki is a measure of affinity in units of concentration, obtained from inhibition or displacement. Read a low Ki as tighter binding.

The experiment addresses T1, Promotilin (Oryctolagus cuniculus, UniProt P27114).
T1 sequence (P27114 whole entry): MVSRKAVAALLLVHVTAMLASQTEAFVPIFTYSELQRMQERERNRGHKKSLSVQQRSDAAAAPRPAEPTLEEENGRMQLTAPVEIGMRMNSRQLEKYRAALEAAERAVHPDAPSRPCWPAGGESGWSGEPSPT
For the molecule `CC[C@H]1OC(=O)[C@H](C)[C@@H](O[C@H]2C[C@@](C)(OC)[C@@H](O)[C@H](C)O2)[C@H](C)[C@@H](O[C@@H]2O[C@H](C)C[C@H](N(C)C(C)C)[C@H]2O)[C@@]2(C)CC(C)=C(O2)[C@H](C)C(=O)[C@]1(C)OC` [Mitemcinal], the affinity, expressed as Ki, was 0.0316 µM. This lies in the double-digit nanomolar range. Next, `CC[C@H](C)[C@H](NC(=O)[C@@H]1CCCN1C(=O)[C@@H](NC(=O)[C@@H](N)Cc1ccccc1)C(C)C)C(=O)N[C@@H](Cc1ccccc1)C(=O)N[C@H](C(=O)N[C@@H](Cc1ccc(O)cc1)C(=O)NCC(=O)N[C@@H](CCC(=O)O)C(=O)N[C@@H](CC(C)C)C(=O)N[C@@H](CCC(N)=O)C(=O)N[C@@H](CCCNC(=N)N)C(=O)N[C@@H](CCSC)C(=O)N[C@@H](CCC(N)=O)C(=O)N[C@@H](CCC(=O)O)C(=O)N[C@@H](CCCCN)C(=O)N[C@@H](CCC(=O)O)C(=O)N[C@@H](CCCNC(=N)N)C(=O)N[C@@H](CC(N)=O)C(=O)N[C@@H](CCCCN)C(=O)NCC(=O)N[C@@H](CCC(N)=O)C(=O)O)[C@@H](C)O` [CAS_52906-92-0]: 0.00398 µM. Next, `CC[C@H]1OC(=O)[C@H](C)[C@@H](O[C@H]2C[C@@](C)(OC)[C@@H](O)[C@H](C)O2)[C@H](C)[C@@H](O[C@H]2O[C@@H](C)C[C@@H](N(C)C)[C@@H]2O)[C@](C)(O)C[C@@H](C)C(=O)[C@H](C)[C@@H](O)[C@]1(C)O` [(3R,4S,5S,6R,7R,9R,11R,12R,13S,14R)-6-{[(2R,3S,4R,6S)-4-(dimethylamino)-3-hydroxy-6-methyloxan-2-yl]oxy}-14-ethyl-7,12,13-trihydroxy-4-{[(2R,4R,5S,6S)-5-hydroxy-4-methoxy-4,6-dimethyloxan-2-yl]oxy}-3,5,7,9,11,13-hexamethyl-1-oxacyclotetradecane-2,10-dione]: 1 µM; `C[N+](C)(C)CCOC(N)=O` [(2-Hydroxyethyl)trimethyl ammonium chloride carbamate]: 0.158 µM.
